Reference: patent US10953027B2, “Active agents and methods of their use for the treatment of metabolic disorders and nonalcoholic fatty liver disease” (Flagship Pioneering Innovations V, Inc., priority 2018, dated 2021)

How the values were obtained:
naïve CD4+ T cells = assay: Human regulatory T cell differentiation assay; type: cell-based; conditions: 6 days
Method: Peripheral blood mononuclear cells (PBMCs) from whole blood donated by health volunteers were separated by Ficoll-Paque gradient centrifugation and naïve CD4^+ T cells were subsequently isolated using magnet beads (EasySep™ Human Naïve CD4^+ T Cell Isolation Kit, Cambridge, Mass.). For regulatory T cell (Treg) differentiation assay, naïve CD4^+ T cells were cultured (1-10×10^4 cells) in CTS OpTmizer medium for 6 days and stimulated with 5 ng/ml TGF-β, 100 U/ml IL-2, and ImmunoCult™ Human […] T Cell Activator; Stemcell #10990) with/without our Compounds. Cell viability was determined using a viability dye (eBioscience Fixable Viability Dye eFluor 780: ThermoFisher 65-0865-14) at 1:500 dilution. The cells were gated for Treg, defined as Live, CD11c^−, CD14^−, CD19^−, CD8^−, CD4^+, CD3^+, CD25^+, FOXP3^+. Percent (%) Tregs were calculated as percentage of CD4^+, CD25^+, FOXP3^+ cells over total CD4^+ T cells. Statistical analysis was performed with GraphPad Prism Software Using One-Way ANOVA.

Mouse 3T3-L1 cells = assay: Mouse adipocyte lipolysis assay; type: cell-based
Method: Once the cells became confluent, they were seeded into a tissue culture treated 96 well plate. […] After 14 days of differentiation, cells were treated with compounds of interest. After 24 hours post-treatment, the cell viability was assessed using CellTiter-Glo Luminescent Cell Viability Assay from Promega, and lipolysis was determined using Lipolysis Assay Kit from ZenBio.

Mouse myocyte = Mouse myocyte lipolysis assay; type: cell-based
Method: Cells were obtained from ATCC and cultured in Dulbecco's Modified Eagle's medium (DMEM) containing 20% fetal bovine serum and 1% penicillin/streptomycin at 37° C. in an incubator with 5% CO2. Once the cells became confluent, they were seeded into a tissue culture treated 96 well plate. The next day, the medium containing DMEM with 2% equine serum was used to start differentiation. Once cells were fully differentiated, they were treated with indicated compounds.

Male DIO mice = assay: In vivo evaluation for glucose disposal and lipidemia in DIO mice (Example 11); conditions: 0.045% in HFD
Method: The DIO mice were prepared by feeding male C57BL/6 mice a high fat diet (HFD, Research Diets D12492) from 6-14 weeks of age. DIO mice were housed individually and maintained on the HFD through the duration of study. A twelve-hour light cycle was maintained with room temperature maintained at 22-25° C. All of the mice were acclimated to the facility for 5 days prior to starting the study.
Following 5 days of facility acclimation, DIO mice were randomized into 8 groups of 10 based on body weight and blood glucose for assignment to treatment, as shown in Table 9:
All treatments were administered admixed in HFD (Research Diets, New Brunswick N.J.) and were provided ad libitum for 30 days. Drinking water for group 7 was supplemented with 1, 3 Butanediol at 3% concentration.
Body weight was recorded at baseline and twice weekly thereafter. Feed and water intakes were recorded each Monday, Wednesday, and Friday.
Blood samples (<3 μL) were obtained one hour post dose by tail clip at baseline and weekly thereafter for measurement of fed blood glucose by StatStrip. Additional anti-coagulated blood samples (100 μl, EDTA di-potassium salt) were obtained by tail clip one hour post-dose at baseline, day 14 and day 30. Anti-coagulated samples were quick frozen and stored on dry ice.
Animals were subjected to a 16 hour fast for performance of an oral glucose tolerance test (OGTT) on day 28. Blood samples were obtained via tail clip just prior to (8 am) and 15, 30, 60, 90, and 120 minutes post-glucose load (2.0 g/kg, PO) for assay of whole blood glucose (StatStrip). Feed was returned following last sample.
Animals were terminated on day 30-31 using CO2 inhalation and induction of pneumothorax. Terminal blood samples were obtained by cardiac puncture. Whole blood was processed to serum and analyzed for serum cholesterol, triglycerides, high density lipoprotein (HDL), low density lipoprotein (LDL) and non-esterified fatty acids (NEFA) using AU480 clinical analyzer.
Organ weights (liver, spleen, subcutaneous fat, inguinal fat, abdominal fat, and epididymal fat) were recorded. Sections of each fat were frozen or fixed in 4% paraformaldehyde/PBS, pH 6.9; Fat samples were placed on dry ice. Fixed liver samples (4% paraformaldehyde) were sent to Premier Laboratories for H&E staining and scoring for steatosis, inflammation and fibrosis. Spleen samples were prepared in ice cold 5% bovine serum albumin (BSA) in PBS or 4% paraformaldehyde. Sections of brain, heart, lung, and small and large intestine were fixed in 10% formalin.
All data are represented as group mean±SEM. Data were analyzed using JMP (SAS software). All normalizations were calculated using terminal body weight.
Baseline differences among groups were identified using Tukey-Kramer Hsd<0.05. Treatment effects compared to control were determined using Oneway ANOVA (*, p<0.05) followed by Dunnett's test where appropriate.

[1] = test system: Primary human subcutaneous adipocytes; assay: Glucose uptake in human subcutaneous adipocytes, insulin sensitive model; type: cell-based
Method: Primary human subcutaneous adipocytes (Zen Bio, Research Triangle Park, N.C.) were differentiated for two weeks prior to treatment. Cells were treated with indicated compounds diluted in (dimethyl-sulfoxide) DMSO in serum free medium for 24 hours in triplicate. After 24 hours, media was exchanged for assay buffer and the compounds were added again but in the presence of approximately 1 nM insulin. Glucose uptake was initiated with the addition of a cocktail containing 2-deoxyglucose and ^3H-2-deoxyglucose and allowed to incubate for 2 hours. Cells were washed, lysed and glucose uptake was measured as counts per well. As an assay control, 100 nM of insulin was used during the 2 hours of glucose uptake. […] Statistical changes in glucose uptake were determined by way ANOVA and compared to DMSO.

[2] = test system: Primary human subcutaneous adipocytes; assay: Glucose uptake in human subcutaneous adipocytes, insulin resistant model; type: cell-based
Method: As described above, primary human subcutaneous adipocytes were differentiated for two weeks prior to treatment. To induce an insulin resistant state, cells were treated in serum free Dulbecco's Modified Eagle Medium (high glucose) and […] for 24 hours. Cells were simultaneously treated with compounds diluted in DMSO for 24 hours. As described above, after 24 hours, media was exchanged for assay buffer and the compounds were added again but in the presence of approximately 1 nM insulin. Cells were washed and lysed after 2 hours and glucose uptake was measured. […] Statistical changes in glucose uptake were determined by way ANOVA and compared to DMSO.

[3] = Homo sapiens, CD4+ T, 144 h, 100 uM, read-out: Treg induction % DMSO
[4] = Mus musculus, 3T3-L1, 24 hours, read-out: Lipolysis Free Fatty Acids % DMSO
[5] = Mus musculus, read-out: Free glycerol % DMSO

CC(O)CC(=O)[O-].[Na+] (centres unmarked) [Sodium BHB]
Cell viability % DMSO (naïve CD4+ T cells; 2 mM): = (90%≥ ≤110%: =) | Treg induction % DMSO (naïve CD4+ T cells; 2 mM): + (110%> ≤130%: +) | Cell viability % DMSO (naïve CD4+ T cells; 20 mM): − (<90%: −) | Treg induction % DMSO (naïve CD4+ T cells; 20 mM): = (90%≥ ≤110%: =) | Lipolysis Free Fatty Acids % DMSO (Mouse 3T3-L1 cells; 0.2 mM, 24 hours): ++ (50> ≤70%: ++) | Lipolysis Glycerol % change (Mouse 3T3-L1 cells; 0.2 mM, 24 hours): + (70%> ≤90%: +) | cell viability (CellTiter-Glo) (Mouse 3T3-L1 cells; 0.2 mM, 24 hours post-treatment): 86 % of DMSO control | Lipolysis Free Fatty Acids % DMSO (Mouse 3T3-L1 cells; 2 mM, 24 hours): ++ (50> ≤70%: ++) | Lipolysis Glycerol % change (Mouse 3T3-L1 cells; 2 mM, 24 hours): ++ (50> ≤70%: ++) | Lipolysis Free Fatty Acids % DMSO (Mouse 3T3-L1 cells; 20 mM, 24 hours): + (70%> ≤90%: +) | Lipolysis Glycerol % change (Mouse 3T3-L1 cells; 20 mM, 24 hours): ++ (50> ≤70%: ++) | Free glycerol % DMSO (Mouse myocyte; 0.2 mM): ++ (50> <70%: ++) | Free glycerol % DMSO (Mouse myocyte; 2 mM): ++ (50> <70%: ++)

O=C[C@H](O)[C@@H](O)[C@@H](O)CO [L-arabinose]
Cell viability % DMSO (naïve CD4+ T cells; 0.5 mM): = (90%≥ ≤110%: =) | Cell viability % DMSO (naïve CD4+ T cells; 1 mM): = (90%≥ ≤110%: =) | activity at 500 µM (naïve CD4+ T cells; Homo sapiens, CD4+ T, 144 h, 0.5 mM, read-out: Treg induction % DMSO): 90 to 110% | activity at 1000 µM (naïve CD4+ T cells; Homo sapiens, CD4+ T, 144 h, 1 mM, read-out: Treg induction % DMSO): 90 to 110% | activity at 500 µM (Mouse 3T3-L1 cells; Mus musculus, 3T3-L1, 0.5 mM, 24 hours, read-out: Lipolysis Free Fatty Acids % DMSO): 50 to 70% | activity at 1000 µM (Mouse 3T3-L1 cells; Mus musculus, 3T3-L1, 1 mM, 24 hours, read-out: Lipolysis Free Fatty Acids % DMSO): 50 to 70% | activity at 500 µM (Mouse myocyte; Mus musculus, 0.5 mM, read-out: Free glycerol % DMSO): 70 to 90% | activity at 1000 µM (Mouse myocyte; Mus musculus, 1 mM, read-out: Free glycerol % DMSO): 70 to 90%

CC[C@H]1[C@@H](O)[C@@H]2[C@H](CC[C@]3(C)[C@@H]([C@H](C)CCC(=O)O)CC[C@@H]23)[C@@]2(C)CC[C@@H](O)C[C@@H]12 [Obeticholic acid, obeticholic acid]
Cell viability % DMSO (naïve CD4+ T cells; 100 uM): = (90%≥ ≤110%: =) | activity at 100 µM (naïve CD4+ T cells; [3]): 110 to 130% | activity at 100 µM (Mouse 3T3-L1 cells; [4]): 90 to 100% | activity at 100 µM (Mouse myocyte; [5]): 90 to 100%

CN(CCOc1ccc(CC2SC(=O)NC2=O)cc1)c1ccccn1 (centres unmarked) [Rosiglitazone, rosiglitazone, reference compound]
Abdominal fat (% BW) (Male DIO mice): *1.6 ± 0.1 % BW | Blood glucose (fed) change compared to baseline (Male DIO mice): −22.8±3.7% | Epididymal fat (% BW) (Male DIO mice): 4.1 ± 0.2 % BW | Inguinal fat (% BW) (Male DIO mice): 0.78 ± 0.05 % BW | Subcutaneous fat (% BW) (Male DIO mice): *7.6 ± 0.5 % BW | Fasting blood glucose levels (time 0 from OGTT) (Male DIO mice; 28 days, 16 hour fast): 91.3 ± 2.5 mg/dL | change in body weight from baseline (Male DIO mice; 30 days): 22.8±1.9% | Cholesterol (Male DIO mice; terminal (fed) serum): *121.5 ± 7.3 mg/dL | HDL (Male DIO mice; terminal (fed) serum): *60.5 ± 3.0 mg/dL | LDL (Male DIO mice; terminal (fed) serum): 8.0 ± 0.5 mg/dL | NEFA (Male DIO mice; terminal (fed) serum): *0.71 ± 0.04 mEq/L | Triglycerides (Male DIO mice; terminal (fed) serum): 91.3 ± 4.8 mg/dL | Cell viability % DMSO (naïve CD4+ T cells; 10 uM): = (90%≥ ≤110%: =) | Cell viability % DMSO (naïve CD4+ T cells; 100 uM): − (<90%: −) | activity at 10 µM (naïve CD4+ T cells; Homo sapiens, CD4+ T, 144 h, 10 uM, read-out: Treg induction % DMSO): 90 to 110% | activity at 100 µM (naïve CD4+ T cells; [3]): 90 to 110% | activity at 100 µM (Mouse 3T3-L1 cells; [4]): ≤ 50% | activity at 10 µM (Mouse myocyte; Mus musculus, 10 μM, read-out: Free glycerol % DMSO): 50 to 70% | activity at 100 µM (Mouse myocyte; [5]): 50 to 70%

CCC(=O)O [Propionic acid]
Cell viability % DMSO (naïve CD4+ T cells; 3 mM): = (90%≥ ≤110%: =) | activity at 3000 µM (Mouse 3T3-L1 cells; Mus musculus, 3T3-L1, 3 mM, 24 hours, read-out: Lipolysis Free Fatty Acids % DMSO): ≤ 50% | activity at 3000 µM (Mouse myocyte; Mus musculus, 3 mM, read-out: Free glycerol % DMSO): 50 to 70%

C[C@@H](O)CC(=O)O [(R)-BHB]
insulin-mediated glucose uptake ([1]; insulin sensitive model, compared to DMSO): significantly enhanced insulin-mediated glucose uptake | insulin-mediated glucose uptake ([2]; insulin-resistant like state, compared to DMSO): significantly enhanced insulin-mediated glucose uptake

C[C@@H](O)CC(=O)O [(R) BHB]
Insulin Sensitive % DMSO (glucose uptake) ([1]; 2 mM): ++ (140%≥ ≤200%: ++) | Insulin Sensitive % DMSO (glucose uptake) ([1]; 20 mM): ++ (140%≥ ≤200%: ++) | Insulin Resistant % DMSO (glucose uptake) ([2]; 2 mM): + (110%> ≤140%: +) | Insulin Resistant % DMSO (glucose uptake) ([2]; 20 mM): = (50%> ≤110%: =)
